Assay results from ChEMBL document CHEMBL4507281, “Data for DCP probe BI-4394” (2021).

Tests used:
[1] = target: Cyclin-dependent kinase-like 5 (Homo sapiens) (UniProt O76039); details: Compound concentration 100.0 nM
[2] = target: Serine/threonine-protein kinase TAO2 (Homo sapiens) (UniProt Q9UL54); details: Compound concentration 100.0 nM
[3] = target: Death-associated protein kinase 2 (Homo sapiens) (UniProt Q9UIK4); details: Compound concentration 100.0 nM
[4] = target: Mitotic checkpoint serine/threonine-protein kinase BUB1 (Homo sapiens) (UniProt O43683); details: Compound concentration 100.0 nM
[5] = test system: Tyrosine-protein kinase ABL1 (Homo sapiens), P00519 [M351T]; details: Compound concentration 100.0 nM
[6] = target: Cyclin-dependent kinase 4 (Homo sapiens) (UniProt P11802); details: Compound concentration 100.0 nM
[7] = target: Cyclin-dependent kinase 15 (Homo sapiens) (UniProt Q96Q40); details: Compound concentration 100.0 nM
Cyclin-dependent kinase 15 (Homo sapiens), sequence (Q96Q40 whole entry): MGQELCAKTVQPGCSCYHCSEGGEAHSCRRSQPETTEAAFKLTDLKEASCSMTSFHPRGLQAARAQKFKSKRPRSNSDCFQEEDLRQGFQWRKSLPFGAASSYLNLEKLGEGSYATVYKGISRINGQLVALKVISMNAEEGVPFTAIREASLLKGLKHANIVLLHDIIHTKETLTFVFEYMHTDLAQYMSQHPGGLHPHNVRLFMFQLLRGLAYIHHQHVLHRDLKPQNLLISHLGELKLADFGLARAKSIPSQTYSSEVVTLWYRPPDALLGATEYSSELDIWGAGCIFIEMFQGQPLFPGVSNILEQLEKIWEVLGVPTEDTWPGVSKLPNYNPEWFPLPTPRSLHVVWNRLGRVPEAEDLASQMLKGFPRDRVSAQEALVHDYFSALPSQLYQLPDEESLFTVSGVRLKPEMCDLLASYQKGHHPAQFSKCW

[8] = target: Phosphatidylinositol 5-phosphate 4-kinase type-2 gamma (Homo sapiens) (UniProt Q8TBX8); details: Compound concentration 100.0 nM
[9] = target: Mitogen-activated protein kinase kinase kinase 20 (Homo sapiens) (UniProt Q9NYL2); details: Compound concentration 100.0 nM
[10] = target: Receptor-type tyrosine-protein kinase FLT3 (Homo sapiens) (UniProt P36888); details: Compound concentration 100.0 nM
[11] = target: Serine/threonine-protein kinase PLK4 (Homo sapiens) (UniProt O00444); details: Compound concentration 100.0 nM
[12] = target: 5-hydroxytryptamine receptor 1E (Homo sapiens) (UniProt P28566); details: Compound concentration 10.0 uM
5-hydroxytryptamine receptor 1E (Homo sapiens), sequence (P28566 whole entry): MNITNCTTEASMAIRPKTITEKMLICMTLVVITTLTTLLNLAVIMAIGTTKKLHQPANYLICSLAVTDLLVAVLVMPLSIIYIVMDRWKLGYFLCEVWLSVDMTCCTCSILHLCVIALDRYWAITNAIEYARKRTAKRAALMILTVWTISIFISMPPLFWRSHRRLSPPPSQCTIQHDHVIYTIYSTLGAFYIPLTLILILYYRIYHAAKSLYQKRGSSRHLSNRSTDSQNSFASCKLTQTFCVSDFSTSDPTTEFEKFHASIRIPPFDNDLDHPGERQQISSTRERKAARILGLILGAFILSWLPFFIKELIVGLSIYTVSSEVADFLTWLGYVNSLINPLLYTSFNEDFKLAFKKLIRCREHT

[13] = target: Tyrosine-protein kinase Fgr (Homo sapiens) (UniProt P09769); details: Compound concentration 100.0 nM
[14] = test system: Phosphatidylinositol 4,5-bisphosphate 3-kinase catalytic subunit alpha isoform (Homo sapiens), P42336 [M1043I]; details: Compound concentration 100.0 nM
[15] = target: Non-receptor tyrosine-protein kinase TYK2 (Homo sapiens) (UniProt P29597); details: Compound concentration 100.0 nM
[16] = target: Fibroblast growth factor receptor 2 (Homo sapiens) (UniProt P21802); details: Compound concentration 100.0 nM
[17] = target: Muscarinic acetylcholine receptor M5 (Homo sapiens) (UniProt P08912); details: Compound concentration 10.0 uM
[18] = target: Testis-specific serine/threonine-protein kinase 3 (Homo sapiens) (UniProt Q96PN8); details: Compound concentration 100.0 nM
[19] = target: Cyclin-dependent kinase 14 (Homo sapiens) (UniProt O94921); details: Compound concentration 100.0 nM
[20] = target: Atypical kinase COQ8A, mitochondrial (Homo sapiens) (UniProt Q8NI60); details: Compound concentration 100.0 nM
[21] = target: Delta-type opioid receptor (Homo sapiens) (UniProt P41143); details: Compound concentration 10.0 uM
[22] = target: Dual specificity tyrosine-phosphorylation-regulated kinase 1B (Homo sapiens) (UniProt Q9Y463); details: Compound concentration 100.0 nM
[23] = target: Mitogen-activated protein kinase 8 (Homo sapiens) (UniProt P45983); details: Compound concentration 100.0 nM
Mitogen-activated protein kinase 8 (Homo sapiens), sequence (P45983 whole entry): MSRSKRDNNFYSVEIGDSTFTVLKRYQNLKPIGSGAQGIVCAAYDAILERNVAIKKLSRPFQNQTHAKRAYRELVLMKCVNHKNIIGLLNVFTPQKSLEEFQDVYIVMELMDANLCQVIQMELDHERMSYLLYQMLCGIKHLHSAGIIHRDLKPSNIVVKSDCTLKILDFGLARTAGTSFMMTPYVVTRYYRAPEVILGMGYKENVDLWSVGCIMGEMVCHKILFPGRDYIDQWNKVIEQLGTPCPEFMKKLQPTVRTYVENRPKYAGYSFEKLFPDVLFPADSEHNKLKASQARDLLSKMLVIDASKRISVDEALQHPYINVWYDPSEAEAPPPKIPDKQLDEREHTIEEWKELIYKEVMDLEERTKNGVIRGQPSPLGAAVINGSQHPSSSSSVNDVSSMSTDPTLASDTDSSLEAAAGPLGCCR

[24] = target: Activated CDC42 kinase 1 (Homo sapiens) (UniProt Q07912); details: Compound concentration 100.0 nM
Activated CDC42 kinase 1 (Homo sapiens), sequence (Q07912 whole entry, looked up): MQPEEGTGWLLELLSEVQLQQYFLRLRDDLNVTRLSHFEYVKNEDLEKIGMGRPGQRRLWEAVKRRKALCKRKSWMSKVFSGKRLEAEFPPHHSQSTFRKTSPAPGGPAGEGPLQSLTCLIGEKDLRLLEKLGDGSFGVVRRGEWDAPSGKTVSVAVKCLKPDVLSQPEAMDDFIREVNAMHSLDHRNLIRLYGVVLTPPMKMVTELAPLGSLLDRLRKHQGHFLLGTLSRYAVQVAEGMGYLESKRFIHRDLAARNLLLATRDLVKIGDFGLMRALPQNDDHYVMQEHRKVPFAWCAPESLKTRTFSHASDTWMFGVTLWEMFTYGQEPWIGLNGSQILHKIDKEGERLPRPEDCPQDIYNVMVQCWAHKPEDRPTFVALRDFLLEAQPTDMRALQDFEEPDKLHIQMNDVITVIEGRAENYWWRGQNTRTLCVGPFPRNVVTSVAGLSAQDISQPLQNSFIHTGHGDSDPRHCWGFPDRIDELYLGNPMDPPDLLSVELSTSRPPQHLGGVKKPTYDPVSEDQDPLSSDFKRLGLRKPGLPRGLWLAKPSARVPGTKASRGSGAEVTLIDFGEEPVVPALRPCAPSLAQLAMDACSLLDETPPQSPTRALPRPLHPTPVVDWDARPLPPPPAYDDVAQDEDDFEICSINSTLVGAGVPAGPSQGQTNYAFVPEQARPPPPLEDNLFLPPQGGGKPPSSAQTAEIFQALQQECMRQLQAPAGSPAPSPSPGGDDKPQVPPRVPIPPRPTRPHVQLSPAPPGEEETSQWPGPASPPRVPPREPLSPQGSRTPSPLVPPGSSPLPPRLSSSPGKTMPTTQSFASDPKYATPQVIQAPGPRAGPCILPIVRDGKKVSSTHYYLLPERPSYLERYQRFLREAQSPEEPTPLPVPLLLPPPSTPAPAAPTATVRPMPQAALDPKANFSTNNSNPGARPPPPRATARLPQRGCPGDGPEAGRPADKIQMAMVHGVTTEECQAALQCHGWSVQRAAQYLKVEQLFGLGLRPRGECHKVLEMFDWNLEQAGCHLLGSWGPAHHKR

[25] = target: Serine/threonine-protein kinase ULK3 (Homo sapiens) (UniProt Q6PHR2); details: Compound concentration 100.0 nM
[26] = target: Ephrin type-A receptor 7 (Homo sapiens) (UniProt Q15375); details: Compound concentration 100.0 nM
[27] = target: Serine/threonine-protein kinase mTOR (Homo sapiens) (UniProt P42345); details: Compound concentration 100.0 nM
[28] = target: Microtubule-associated serine/threonine-protein kinase 1 (Homo sapiens) (UniProt Q9Y2H9); details: Compound concentration 100.0 nM
Microtubule-associated serine/threonine-protein kinase 1 (Homo sapiens), sequence (Q9Y2H9 whole entry, looked up, the tested form may be a part): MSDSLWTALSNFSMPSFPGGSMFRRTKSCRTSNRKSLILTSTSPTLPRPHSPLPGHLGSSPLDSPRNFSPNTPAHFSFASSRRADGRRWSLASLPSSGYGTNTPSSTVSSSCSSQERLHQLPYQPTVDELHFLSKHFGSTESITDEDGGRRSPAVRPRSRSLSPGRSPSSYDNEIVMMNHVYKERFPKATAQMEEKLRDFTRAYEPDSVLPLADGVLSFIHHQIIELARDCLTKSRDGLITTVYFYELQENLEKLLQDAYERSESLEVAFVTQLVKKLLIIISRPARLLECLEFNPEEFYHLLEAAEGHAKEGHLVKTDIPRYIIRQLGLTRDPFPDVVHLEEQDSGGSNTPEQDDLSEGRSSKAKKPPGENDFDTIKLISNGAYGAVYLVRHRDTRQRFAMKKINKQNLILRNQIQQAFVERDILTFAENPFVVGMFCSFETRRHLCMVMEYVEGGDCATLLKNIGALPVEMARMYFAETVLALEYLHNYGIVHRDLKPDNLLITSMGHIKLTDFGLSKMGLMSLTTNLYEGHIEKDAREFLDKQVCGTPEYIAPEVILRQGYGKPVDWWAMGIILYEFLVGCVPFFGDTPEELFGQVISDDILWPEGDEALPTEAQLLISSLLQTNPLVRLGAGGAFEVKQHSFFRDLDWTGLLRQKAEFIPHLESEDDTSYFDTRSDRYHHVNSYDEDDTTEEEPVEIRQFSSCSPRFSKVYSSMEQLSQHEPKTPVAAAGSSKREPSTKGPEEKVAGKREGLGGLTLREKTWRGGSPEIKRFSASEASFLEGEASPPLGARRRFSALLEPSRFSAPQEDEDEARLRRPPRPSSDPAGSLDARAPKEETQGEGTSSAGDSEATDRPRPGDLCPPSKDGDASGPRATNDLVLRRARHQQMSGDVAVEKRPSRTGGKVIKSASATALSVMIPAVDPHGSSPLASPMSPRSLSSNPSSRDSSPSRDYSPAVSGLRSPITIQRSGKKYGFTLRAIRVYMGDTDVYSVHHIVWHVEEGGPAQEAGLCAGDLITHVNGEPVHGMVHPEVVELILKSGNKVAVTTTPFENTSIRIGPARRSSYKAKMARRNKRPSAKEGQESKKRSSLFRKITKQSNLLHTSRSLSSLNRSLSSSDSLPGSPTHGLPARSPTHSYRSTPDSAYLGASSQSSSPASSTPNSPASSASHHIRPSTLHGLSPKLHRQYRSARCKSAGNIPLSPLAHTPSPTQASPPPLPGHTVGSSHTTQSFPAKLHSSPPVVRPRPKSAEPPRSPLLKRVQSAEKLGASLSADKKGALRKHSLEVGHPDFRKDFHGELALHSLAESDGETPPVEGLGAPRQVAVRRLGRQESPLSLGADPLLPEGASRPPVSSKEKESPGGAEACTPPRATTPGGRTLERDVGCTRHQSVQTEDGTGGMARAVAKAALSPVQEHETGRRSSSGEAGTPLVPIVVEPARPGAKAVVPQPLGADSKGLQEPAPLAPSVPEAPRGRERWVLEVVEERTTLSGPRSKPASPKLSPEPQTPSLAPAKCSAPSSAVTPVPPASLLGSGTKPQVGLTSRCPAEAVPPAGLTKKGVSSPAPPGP

[29] = target: LIM domain kinase 2 (Homo sapiens) (UniProt P53671); details: Compound concentration 100.0 nM
[30] = target: Myosin light chain kinase 2, skeletal/cardiac muscle (Homo sapiens) (UniProt Q9H1R3); details: Compound concentration 100.0 nM
[31] = target: Dual specificity protein kinase TTK (Homo sapiens) (UniProt P33981); details: Compound concentration 100.0 nM

Serine/threonine-protein kinase TAO2 (Homo sapiens), sequence (Q9UL54 whole entry): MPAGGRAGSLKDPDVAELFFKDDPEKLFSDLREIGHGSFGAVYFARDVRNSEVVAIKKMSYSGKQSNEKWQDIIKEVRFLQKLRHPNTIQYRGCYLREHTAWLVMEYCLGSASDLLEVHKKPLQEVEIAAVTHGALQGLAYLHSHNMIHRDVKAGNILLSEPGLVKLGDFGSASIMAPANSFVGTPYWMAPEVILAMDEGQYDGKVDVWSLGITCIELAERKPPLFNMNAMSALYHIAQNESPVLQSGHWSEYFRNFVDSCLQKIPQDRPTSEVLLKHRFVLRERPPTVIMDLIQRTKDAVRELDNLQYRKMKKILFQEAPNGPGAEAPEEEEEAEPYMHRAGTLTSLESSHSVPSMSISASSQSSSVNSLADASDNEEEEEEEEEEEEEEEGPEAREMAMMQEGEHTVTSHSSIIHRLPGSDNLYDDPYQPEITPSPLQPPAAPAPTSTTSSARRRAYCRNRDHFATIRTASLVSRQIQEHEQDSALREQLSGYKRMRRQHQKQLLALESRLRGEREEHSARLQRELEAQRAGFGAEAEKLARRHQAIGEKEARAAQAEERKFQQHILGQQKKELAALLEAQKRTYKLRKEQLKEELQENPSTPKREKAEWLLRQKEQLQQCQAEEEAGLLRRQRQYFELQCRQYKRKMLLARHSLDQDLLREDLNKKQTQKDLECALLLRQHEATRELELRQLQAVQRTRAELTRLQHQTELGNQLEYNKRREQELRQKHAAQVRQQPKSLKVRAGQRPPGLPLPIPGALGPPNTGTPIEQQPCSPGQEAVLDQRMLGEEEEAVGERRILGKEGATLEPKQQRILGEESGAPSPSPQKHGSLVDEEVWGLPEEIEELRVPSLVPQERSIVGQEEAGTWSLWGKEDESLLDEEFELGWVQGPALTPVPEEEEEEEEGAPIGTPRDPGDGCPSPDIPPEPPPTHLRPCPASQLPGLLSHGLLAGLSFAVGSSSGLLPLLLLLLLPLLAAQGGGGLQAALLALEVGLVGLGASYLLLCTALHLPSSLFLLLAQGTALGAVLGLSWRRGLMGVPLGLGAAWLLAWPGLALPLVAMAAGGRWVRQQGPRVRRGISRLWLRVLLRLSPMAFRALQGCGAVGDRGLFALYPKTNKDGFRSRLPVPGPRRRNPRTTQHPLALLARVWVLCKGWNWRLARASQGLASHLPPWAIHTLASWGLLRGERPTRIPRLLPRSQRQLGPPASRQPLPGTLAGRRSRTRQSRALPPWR

SMILES | residual activity [1] [%] | residual activity [2] [%] | residual activity [3] [%] | residual activity [4] [%] | residual activity [5] [%] | residual activity [6] [%] | residual activity [7] [%] | residual activity [8] [%] | residual activity [9] [%] | residual activity [10] [%] | residual activity [11] [%] | inhibition [12] [%] | residual activity [13] [%] | residual activity [14] [%] | residual activity [15] [%] | residual activity [16] [%] | inhibition [17] [%] | residual activity [18] [%] | residual activity [19] [%] | residual activity [20] [%] | also measured
Cn1nc(C(=O)NCc2ccc(C(=O)O)cc2)cc1-c1ccc2[nH]ccc2c1 [BI 4395] | 85 | 82 | 96 | 83 | 75 | 84 | 95 | 63 | 80 | 86 | 61 | 10.3 | 87 | 85 | 82 | 87 | -7.43 | 97 | 100 | 100 | inhibition [21]: 0.8%; residual activity [22]: 100%; residual activity [23]: 88%; residual activity [24]: 100%; residual activity [25]: 99%; residual activity [26]: 82%; residual activity [27]: 31%; residual activity [28]: 100%; residual activity [29]: 100%; residual activity [30]: 83%; residual activity [31]: 88%
CCOC(=O)c1cc2cc(-c3cc(C(=O)NCc4ccc(C(=O)O)cc4)nn3C)ccc2[nH]1 [BI 4394] | 87 | 90 | 92 | 100 | 90 | 82 | 93 | 95 | 87 | 90 | 82 | 6.37 | 94 | 100 | 90 | 89 | 7.64 | 91 | 100 | 100 | inhibition [21]: -9.42%; residual activity [22]: 100%; residual activity [23]: 96%; residual activity [24]: 100%; residual activity [25]: 100%; residual activity [26]: 97%; residual activity [27]: 100%; residual activity [28]: 87%; residual activity [29]: 96%; residual activity [30]: 89%; residual activity [31]: 93%
